{
  "source": "paper PMC6081875",
  "about": "(EJNMMI Research, 2018)",
  "key": {"[1]": {"experiment": "Abdominal effective half-life from sequential quantitative SPECT (mono-exponential fit)", "format": "in vivo", "experimental": "(§1) Data for dosimetry were acquired during a routine 4-day in-patient stay following the radiopharmaceutical injection, in conjunction with standard clinical examinations. All patients received a 15-min one-bed abdominal SPECT scan and a 20-min whole-body planar scintigraphy at 24, 48, and 72 h post-injection (p. i.) on a dual-headed Symbia T2 SPECT/CT (Siemens Medical Solutions, Erlangen, Germany). Counts were detected for the photopeak window of 208 keV (width 15%) by the usage of a medium-energy low-penetration collimator. Two additional scatter windows were measured at 170 keV (width 15%) and 240 keV (width 10%). A low-dose AC-CT was acquired at the first image acquisition session for anatomical correlation and attenuation correction during quantitative SPECT reconstruction. For the determination of the absorbed dose to the bone marrow from the activity circulating in the blood, five venous blood samples were drawn from the site contralateral to injection at 30 and 80 min p. i. and 24, 48, and 72 h p. i..\nQuantitative SPECT images were reconstructed as described by Delker et al. via a rotation-based, penalised, one-step-late ordered subset expectation maximisation algorithm, which included corrections for scatter, attenuation, and distance-dependent geometrical collimator blur. Attenuation correction was performed for each SPECT scan via the AC-CT, which was acquired along with the SPECT scan 24 h post-injection. To apply the attenuation correction, especially to the SPECT scans 48 and 72 h p. i., the single AC-CT was co-registered onto an initial SPECT reconstruction without attenuation correction by using a rigid body co-registration algorithm with six degrees of freedom (PMOD Version 3.609, PMOD Technologies, Zurich, Switzerland). If only one AC-CT is acquired for sequential SPECT imaging, special care has to be taken to minimise misregistration between SPECT images and separately acquired CT scans, as such a misalignment can distort the proper attenuation correction and, thus, activity quantification. This is in principal also true for serial SPECT and CT imaging, as even within a single image acquisition session patient movements cannot be entirely avoided. Scatter correction employed the triple energy window (TEW) method. Correction for distance-dependent collimator blur made use of a Gaussian blur model. Corrections for partial volume effects and dead time were not applied. For conversion of the measured counts per second and per voxel to Becquerel per millilitre, an appropriate calibration factor was determined. Therefore, we used a large cylinder of approximately 20 cm diameter, which was filled with a known activity concentration and which has been imaged and reconstructed via the same protocol.\n(§2) First, the abdominal effective decay constant λSPECT was derived via a mono-exponential fit to the total activity in the SPECT scans 24, 48, and 72 h post-therapy. Especially, all organs and all tumours were included in the fitting of the TAC, as it was the case for the determination of A~WB from the reference protocol. This effective decay constant λSPECT serves as a surrogate for the reference-protocol-based whole-body effective decay constant (Fig. 2). The mono-exponential SPECT-based abdominal TAC was then scaled with a chosen base point. This base point is defined via the whole-body activity AWB(t^∗) of a single whole-body planar image acquired at an arbitrary time point t^∗∈ 24, 48, or 72 h post-therapy. The resulting pseudo-whole-body TAC AWB, pseudo(t) is intended to serve as an estimate of the reference-protocol-based whole-body TAC (Eq. (7.1)) and can be further used to determine a pseudo-whole-body time-integrated activity A~WB,pseudo (Eq. (7.2))."}, "[2]": {"experiment": "Blood time-activity curve from venous blood samples (gamma counter, bi-exponential fit)", "format": "in vivo, human", "conditions": "blood samples 30 min, 80 min, 24, 48, 72 h p. i.; median of n = 5 patients per therapy", "experimental": "as §1\n[11, 13]. […] To derive the patient-specific blood TAC, 1 ml of blood of each sample was pipetted into a test tube and measured within a Cobra Gamma Counter (Packard Instrument Company, Inc., Meriden, CT), which has been previously calibrated via five 1-ml test samples of known activity concentration. […]"}, "bone marrow": {"test_system": "bone marrow", "experiment": "Bone marrow dosimetry, hybrid protocol (HP): sequential abdominal quantitative SPECT scaled with a single whole-body planar image", "format": "in vivo, human", "experimental": "The proposed hybrid protocol (HP) uses a single whole-body image and sequential single-bed quantitative SPECT acquisitions of the abdomen to determine the ROB TAC, instead of deriving the ROB TAC from sequential whole-body planar imaging.\nas §2, with “This effective decay constant λSPECT serves as a surrogate for the reference-protocol-based whole-body effective decay constant (Fig. 2).” left out\n7.1 AWB,pseudot=AWB,pseudot^∗∙exp−λSPECT∙t−t^∗, 7.2 A~WB,pseudo=∫t=0∞AWB,pseudot^′dt^′=AWBt^∗∙expλSPECT∙t^∗/λSPECT=AWBt^∗∙expλSPECT∙t^∗∙T1/2,SPECT/ln2.\nBased on the hybrid model given in Eqs. (7.1) and (7.2), the bone marrow absorbed dose from the ROB can be estimated by Eqs. (4.1) and (4.2). In this work, we investigated a combination of the sequential abdominal SPECT with the whole-body planar images at 24, 48, or 72 h p. i., where each whole-body planar image was individually calibrated via the quantitative SPECT at the corresponding time point (Fig. 2). These different hybrid protocols were further denoted as HP24, HP48, and HP72. The agreement of the bone marrow absorbed doses from the ROB, as determined via the HP and the RP, was assessed. Therefore, the percentage deviation between absorbed dose estimates (PDdose; Eq. (8)) was calculated, and a statistical test for correlation was performed (MATLAB Pearson correlation analysis).\nFurthermore, the same analysis was performed regarding the total bone marrow absorbed dose estimates composed of all available constituents: the ROB (including tumours), the explicitly analysed organs, and the contribution of the blood activity."}, "[3]": {"conditions": "mono-exponential fit to total activity in abdominal SPECT 24, 48, 72 h p. i., median of n = 5 patients per therapy"}},
  "data": [
    {"smiles": "C[C@@H](O)[C@H](NC(=O)[C@@H]1CSSC[C@H](NC(=O)[C@@H](Cc2ccccc2)NC(=O)CN2CCN(CC(=O)O)CCN(CC(=O)O)CCN(CC(=O)O)CC2)C(=O)N[C@@H](Cc2ccc(O)cc2)C(=O)N[C@H](Cc2c[nH]c3ccccc23)C(=O)N[C@@H](CCCCN)C(=O)N[C@@H]([C@@H](C)O)C(=O)N1)C(=O)O", "note": "[Lu-177-Octreotate, Lu-177-[DOTA^0,Tyr^3]-Octreotate, metal not drawn]", "values": [
      {"measurement": "T1/2, SPECT, SPECT-based abdominal effective half-life", "setting": "[1]; [3]", "value": 61, "unit": "h"},
      {"measurement": "T1/2, SPECT, SPECT-based abdominal effective half-life", "setting": "[1]; mono-exponential fit, abdominal SPECT 24, 48, 72 h p. i., patient P1 (NET)", "value": 53, "unit": "h"},
      {"measurement": "T1/2, SPECT, SPECT-based abdominal effective half-life", "setting": "[1]; mono-exponential fit, abdominal SPECT 24, 48, 72 h p. i., patient P2 (NET)", "value": 61, "unit": "h"},
      {"measurement": "T1/2, SPECT, SPECT-based abdominal effective half-life", "setting": "[1]; mono-exponential fit, abdominal SPECT 24, 48, 72 h p. i., patient P3 (NET)", "value": 56, "unit": "h"},
      {"measurement": "T1/2, SPECT, SPECT-based abdominal effective half-life", "setting": "[1]; mono-exponential fit, abdominal SPECT 24, 48, 72 h p. i., patient P4 (NET)", "value": 73, "unit": "h"},
      {"measurement": "T1/2, SPECT, SPECT-based abdominal effective half-life", "setting": "[1]; mono-exponential fit, abdominal SPECT 24, 48, 72 h p. i., patient P5 (NET)", "value": 87, "unit": "h"},
      {"measurement": "effective half-life for the slow phase of the bi-exponential fit to the blood time-activity measurements", "setting": "[2]", "value": 25, "unit": "h"},
      {"measurement": "DBM ← total HP72, total bone marrow absorbed dose", "setting": "bone marrow; whole-body planar image 72 h p. i., patient P1 (NET, 7654 MBq)", "value": 12.1, "unit": "mGy/GBq"}
    ]},
    {"smiles": "O=C(O)CC[C@H](NC(=O)N[C@@H](CCCCNC(=O)[C@H](Cc1ccc2ccccc2c1)NC(=O)[C@H]1CC[C@H](CNC(=O)CN2CCN(CC(=O)O)CCN(CC(=O)O)CCN(CC(=O)O)CC2)CC1)C(=O)O)C(=O)O", "note": "[Lu-177-PSMA-617, Lu-177-DKFZ-PSMA-617, metal not drawn]", "values": [
      {"measurement": "T1/2, SPECT, SPECT-based abdominal effective half-life", "setting": "[1]; [3]", "value": 42, "unit": "h"},
      {"measurement": "T1/2, SPECT, SPECT-based abdominal effective half-life", "setting": "[1]; mono-exponential fit, abdominal SPECT 24, 48, 72 h p. i., patient P6 (mCRPC)", "value": 33, "unit": "h"},
      {"measurement": "T1/2, SPECT, SPECT-based abdominal effective half-life", "setting": "[1]; mono-exponential fit, abdominal SPECT 24, 48, 72 h p. i., patient P7 (mCRPC)", "value": 50, "unit": "h"},
      {"measurement": "T1/2, SPECT, SPECT-based abdominal effective half-life", "setting": "[1]; mono-exponential fit, abdominal SPECT 24, 48, 72 h p. i., patient P8 (mCRPC)", "value": 67, "unit": "h"},
      {"measurement": "T1/2, SPECT, SPECT-based abdominal effective half-life", "setting": "[1]; mono-exponential fit, abdominal SPECT 24, 48, 72 h p. i., patient P9 (mCRPC)", "value": 31, "unit": "h"},
      {"measurement": "T1/2, SPECT, SPECT-based abdominal effective half-life", "setting": "[1]; mono-exponential fit, abdominal SPECT 24, 48, 72 h p. i., patient P10 (mCRPC)", "value": 42, "unit": "h"},
      {"measurement": "effective half-life for the slow phase of the bi-exponential fit to the blood time-activity measurements", "setting": "[2]", "value": 14, "unit": "h"},
      {"measurement": "DBM ← total HP24, total bone marrow absorbed dose", "setting": "bone marrow; single whole-body planar image 24 h p. i., median of n = 5 patients per therapy", "value": 11.3, "unit": "mGy/GBq"},
      {"measurement": "DBM ← total HP48, total bone marrow absorbed dose", "setting": "bone marrow; single whole-body planar image 48 h p. i., median of n = 5 patients per therapy", "value": 9.6, "unit": "mGy/GBq"},
      {"measurement": "DBM ← total HP72, total bone marrow absorbed dose", "setting": "bone marrow; single whole-body planar image 72 h p. i., median of n = 5 patients per therapy", "value": 10.1, "unit": "mGy/GBq"},
      {"measurement": "DBM ← total HP24, total bone marrow absorbed dose", "setting": "bone marrow; whole-body planar image 24 h p. i., patient P6 (mCRPC, 3718 MBq)", "value": 11.3, "unit": "mGy/GBq"},
      {"measurement": "DBM ← total HP24, total bone marrow absorbed dose", "setting": "bone marrow; whole-body planar image 24 h p. i., patient P7 (mCRPC, 3743 MBq)", "value": 8.1, "unit": "mGy/GBq"},
      {"measurement": "DBM ← total HP24, total bone marrow absorbed dose", "setting": "bone marrow; whole-body planar image 24 h p. i., patient P8 (mCRPC, 3745 MBq)", "value": 17.1, "unit": "mGy/GBq"},
      {"measurement": "DBM ← total HP24, total bone marrow absorbed dose", "setting": "bone marrow; whole-body planar image 24 h p. i., patient P9 (mCRPC, 3752 MBq)", "value": 13.5, "unit": "mGy/GBq"},
      {"measurement": "DBM ← total HP24, total bone marrow absorbed dose", "setting": "bone marrow; whole-body planar image 24 h p. i., patient P10 (mCRPC, 3700 MBq)", "value": 10.0, "unit": "mGy/GBq"},
      {"measurement": "DBM ← total HP48, total bone marrow absorbed dose", "setting": "bone marrow; whole-body planar image 48 h p. i., patient P6 (mCRPC, 3718 MBq)", "value": 9.6, "unit": "mGy/GBq"},
      {"measurement": "DBM ← total HP48, total bone marrow absorbed dose", "setting": "bone marrow; whole-body planar image 48 h p. i., patient P7 (mCRPC, 3743 MBq)", "value": 6.7, "unit": "mGy/GBq"},
      {"measurement": "DBM ← total HP48, total bone marrow absorbed dose", "setting": "bone marrow; whole-body planar image 48 h p. i., patient P8 (mCRPC, 3745 MBq)", "value": 17.1, "unit": "mGy/GBq"},
      {"measurement": "DBM ← total HP48, total bone marrow absorbed dose", "setting": "bone marrow; whole-body planar image 48 h p. i., patient P9 (mCRPC, 3752 MBq)", "value": 13.6, "unit": "mGy/GBq"},
      {"measurement": "DBM ← total HP48, total bone marrow absorbed dose", "setting": "bone marrow; whole-body planar image 48 h p. i., patient P10 (mCRPC, 3700 MBq)", "value": 8.1, "unit": "mGy/GBq"},
      {"measurement": "DBM ← total HP72, total bone marrow absorbed dose", "setting": "bone marrow; whole-body planar image 72 h p. i., patient P6 (mCRPC, 3718 MBq)", "value": 10.1, "unit": "mGy/GBq"},
      {"measurement": "DBM ← total HP72, total bone marrow absorbed dose", "setting": "bone marrow; whole-body planar image 72 h p. i., patient P7 (mCRPC, 3743 MBq)", "value": 7.0, "unit": "mGy/GBq"},
      {"measurement": "DBM ← total HP72, total bone marrow absorbed dose", "setting": "bone marrow; whole-body planar image 72 h p. i., patient P8 (mCRPC, 3745 MBq)", "value": 16.8, "unit": "mGy/GBq"},
      {"measurement": "DBM ← total HP72, total bone marrow absorbed dose", "setting": "bone marrow; whole-body planar image 72 h p. i., patient P9 (mCRPC, 3752 MBq)", "value": 15.1, "unit": "mGy/GBq"},
      {"measurement": "DBM ← total HP72, total bone marrow absorbed dose", "setting": "bone marrow; whole-body planar image 72 h p. i., patient P10 (mCRPC, 3700 MBq)", "value": 8.5, "unit": "mGy/GBq"}
    ]}
  ]
}
